Columns and labels:
[1] = test system: broadleaf species: pigweed, velvetleaf, morningglory; assay: Greenhouse preemergence herbicide test, broadleaves; type: in vivo; settings: two weeks after treatment, 20160 min
Protocol: (§1) To illustrate the preemergence herbicidal efficiency of the alkyl-substituted 2-chloro-N-propargylacetanilides of this invention, test formulations are prepared of each compound by mixing 20 ml of an acetone solution containing 0.125 g of chemical with 20 ml of water containing 0.01 g of Triton X-155 surfactant. The resultant formulations contain 3125 ppm of test compound, 50% by volume of acetone and 0.025% by weight of surfactant. Appropriate lower concentrations are obtained by diluting this formulation with surfactant-acetone solution so that the concentration of adjuvants is maintained at the original levels.
(§2) Seeds of three broadleaf and three grass species are planted in soil contained in 10 inch × 8 inch × 3 inch aluminum pans filled with 1.5 inches of composted soil. The broadleaf species are pigweed (Amaranthus retroflexus), velvetleaf (Abutilon theophrasti), and morningglory (Ipomea coccinea); the grasses are red millet (Panicum milliacem), green foxtail (Setaria viridis) and Japanese millet (Echinochloa frumentacea).
(§3) The seeded pans are sprayed so that the soil surface is uniformly covered with dilutions of the stock formulation providing dosage rates of the test compounds as shown in the following table.
(§4) Two weeks after treatment, percent control (plant kill) at each dosage rate is estimated with results as follows: […]

[2] = test system: grass species: red millet, green foxtail, Japanese millet; assay: Greenhouse preemergence herbicide test, grasses; type: in vivo, Panicum milliacem, Setaria viridis, Echinochloa frumentacea; settings: pre-emergence, 336 h, two weeks after treatment; for pest or weed control at 280.212 g/ha: 0.25 lb/A; for pest or weed control at 560.425 g/ha: 0.5 lb/A; for pest or weed control at 1120.85 g/ha: 1.0 lb/A; for pest or weed control at 69.4927 g/ha: 0.062 lb/A; for pest or weed control at 140.106 g/ha: 0.125 lb/A
Protocol: as §1, §2, §3, §4

Common Lambsquarter = assay: Field preemergence test, weed control; type: in vivo; settings: 3-4 weeks after planting
Excerpt: (§5) Test plots of fertilized, light sandy soil containing 0.7% organic matter are sprayed uniformly with aqueous suspensions prepared from emulsifiable concentrates containing 12%, by weight, of the test chemicals diluted to provide dosage rates of the test compounds corresponding to 2.0, 1.0, 0.5, and 0.25 pound per acre (lb/A). The plots are then sown with seeds of the following crop plants: sweet corn, cotton (Coker 413) and soybeans, var. Davis. Seeds of the following weed plants are planted: redroot pigweed, prickly sida, common lambsquarter, goosegrass and giant foxtail.
(§6) Three to four weeks after planting, percent control (plant kill) of the test plants is estimated, from a rating of 0 which denotes no injury to the plant up to 100 which denotes complete destruction. The herbicidal action of the test compounds obtained on the weed species is as follows: […]

Giant Foxtail = assay: Field preemergence test, weed control; type: in vivo; settings: 3-4 weeks after planting
Excerpt: as §5, §6

Goosegrass = assay: Field preemergence test, weed control; type: in vivo; settings: 3-4 weeks after planting
Excerpt: as §5, §6

Prickly Sida = assay: Field preemergence test, weed control; type: in vivo; settings: 3-4 weeks after planting
Excerpt: as §5, §6

Redroot Pigweed = assay: Field preemergence test, weed control; type: in vivo; settings: 3-4 weeks after planting
Excerpt: as §5, §6

Corn = assay: Field preemergence test, phytotoxic effects on crop; type: in vivo, sweet corn
Excerpt: as §5
(§7) Three to four weeks after planting, percent control (plant kill) of the test plants is estimated, from a rating of 0 which denotes no injury to the plant up to 100 which denotes complete destruction. The herbicidal action of the test compounds obtained on the weed species is as follows:
(§8) Phytotoxic effects observed on the crop species is estimated with results as follows: […]

Cotton = assay: as above; type: in vivo, cotton (Coker 413)
Excerpt: as §5, §7, §8

Soybeans = assay: as above; type: in vivo, var. Davis
Excerpt: as §5, §7, §8

| Compound | % Control, Broadleaves ([1]; 1.0 lb/A) [%] | pest or weed control at 280.212 g/ha [2] [%] | pest or weed control at 560.425 g/ha [2] [%] | pest or weed control at 1120.85 g/ha [2] [%] | % Control, Broadleaves ([1]; 0.5 lb/A) [%] | pest or weed control at 69.4927 g/ha [2] [%] | pest or weed control at 140.106 g/ha [2] [%] | % Weed Control, Common Lambsquarter (Common Lambsquarter; 0.25 lb/A) [%] | % Weed Control, Common Lambsquarter (Common Lambsquarter; 0.5 lb/A) [%] | % Weed Control, Common Lambsquarter (Common Lambsquarter; 1.0 lb/A) [%] | % Weed Control, Common Lambsquarter (Common Lambsquarter; 2.0 lb/A) [%] | % Weed Control, Giant Foxtail (Giant Foxtail; 0.25 lb/A) [%] | % Weed Control, Giant Foxtail (Giant Foxtail; 0.5 lb/A) [%] | % Weed Control, Giant Foxtail (Giant Foxtail; 1.0 lb/A) [%] | % Weed Control, Giant Foxtail (Giant Foxtail; 2.0 lb/A) [%] | % Weed Control, Goosegrass (Goosegrass; 0.25 lb/A) [%] | % Weed Control, Goosegrass (Goosegrass; 0.5 lb/A) [%] | % Weed Control, Goosegrass (Goosegrass; 1.0 lb/A) [%] | % Weed Control, Goosegrass (Goosegrass; 2.0 lb/A) [%] | % Weed Control, Prickly Sida (Prickly Sida; 0.25 lb/A) [%] | other results |
| --- | --- | --- | --- | --- | --- | --- | --- | --- | --- | --- | --- | --- | --- | --- | --- | --- | --- | --- | --- | --- | --- |
| C#CCN(C(=O)CCl)c1ccccc1C(C)C [Example 16, 2-Chloro-2'-isopropyl-N-propargylacetanilide] | 0 | 80 | 90 | 100 | – | – | – | – | – | – | – | – | – | – | – | – | – | – | – | – | – |
| C#CCN(C(=O)CCl)c1ccccc1CC [Example 11, 2-Chloro-2'-ethyl-N-propargylacetanilide] | 35 | 80 | 90 | 95 | 0 | 0 | 55 | 50 | 70 | 100 | 100 | 0 | 23 | 45 | 90 | 62 | 82 | 100 | 100 | 0 | % Weed Control, Prickly Sida (Prickly Sida; 0.5 lb/A): 13%; % Weed Control, Prickly Sida (Prickly Sida; 1.0 lb/A): 33%; % Weed Control, Prickly Sida (Prickly Sida; 2.0 lb/A): 57%; % Weed Control, Redroot Pigweed (Redroot Pigweed; 0.25 lb/A): 33%; % Weed Control, Redroot Pigweed (Redroot Pigweed; 0.5 lb/A): 75%; % Weed Control, Redroot Pigweed (Redroot Pigweed; 1.0 lb/A): 80%; % Weed Control, Redroot Pigweed (Redroot Pigweed; 2.0 lb/A): 98%; % Crop Kill, Corn (Corn; 0.5 lb/A): 0%; % Crop Kill, Corn (Corn; 1.0 lb/A): 0%; % Crop Kill, Corn (Corn; 2.0 lb/A): 0%; % Crop Kill, Cotton (Cotton; 0.5 lb/A): 0%; % Crop Kill, Cotton (Cotton; 1.0 lb/A): 10%; % Crop Kill, Cotton (Cotton; 2.0 lb/A): 18%; % Crop Kill, Soybeans (Soybeans; 0.5 lb/A): 0%; % Crop Kill, Soybeans (Soybeans; 1.0 lb/A): 0%; % Crop Kill, Soybeans (Soybeans; 2.0 lb/A): 3% |
| C#CCN(C(=O)CCl)c1c(C)cccc1C(C)C [Example 12, 2-Chloro-2'-methyl-6'-isopropyl-N-propargylacetanilide] | 0 | – | 70 | 90 | – | 45 | 65 | – | – | – | – | – | – | – | – | – | – | – | – | – | % Control, Broadleaves ([1]; 2.0 lb/A): 40%; pest or weed control at 2241.7 g/ha ([2]; 2.0 lb/A): 90% |
| C#CCN(C(=O)CCl)c1c(CC)cccc1C(C)C [Example 14, 2-Chloro-2'-ethyl-6'-isopropyl-N-propargylacetanilide] | 0 | 40 | 80 | 100 | – | – | 40 | – | – | – | – | – | – | – | – | – | – | – | – | – | – |
| C#CCN(C(=O)CCl)c1ccccc1C [Example 10, 2-Chloro-2'-methyl-N-propargylacetanilide] | 35 | 85 | 80 | 90 | 0 | 0 | 55 | 40 | 60 | 95 | 95 | 0 | 20 | 70 | 80 | 53 | 78 | 92 | 97 | 0 | % Control, Broadleaves ([1]; 0.062 lb/A): 0%; % Control, Broadleaves ([1]; 0.125 lb/A): 0%; % Control, Broadleaves ([1]; 0.25 lb/A): 0%; % Weed Control, Prickly Sida (Prickly Sida; 0.5 lb/A): 0%; % Weed Control, Prickly Sida (Prickly Sida; 1.0 lb/A): 0%; % Weed Control, Prickly Sida (Prickly Sida; 2.0 lb/A): 25%; % Weed Control, Redroot Pigweed (Redroot Pigweed; 0.25 lb/A): 0%; % Weed Control, Redroot Pigweed (Redroot Pigweed; 0.5 lb/A): 27%; % Weed Control, Redroot Pigweed (Redroot Pigweed; 1.0 lb/A): 45%; % Weed Control, Redroot Pigweed (Redroot Pigweed; 2.0 lb/A): 67%; % Crop Kill, Corn (Corn; 0.5 lb/A): 0%; % Crop Kill, Corn (Corn; 1.0 lb/A): 0%; % Crop Kill, Corn (Corn; 2.0 lb/A): 0%; % Crop Kill, Cotton (Cotton; 0.5 lb/A): 0%; % Crop Kill, Cotton (Cotton; 1.0 lb/A): 3%; % Crop Kill, Cotton (Cotton; 2.0 lb/A): 3%; % Crop Kill, Soybeans (Soybeans; 0.5 lb/A): 0%; % Crop Kill, Soybeans (Soybeans; 1.0 lb/A): 0%; % Crop Kill, Soybeans (Soybeans; 2.0 lb/A): 0% |
| C#CCN(C(=O)CCl)c1c(C(C)C)cccc1C(C)C [Example 13, 2-Chloro-2',6'-diisopropyl-N-propargylacetanilide] | 0 | 50 | 90 | 90 | – | – | 20 | – | – | – | – | – | – | – | – | – | – | – | – | – | – |

— patent publication US4001325A, “α-Chloroacetanilide selective herbicides” (Diamond Shamrock Corporation, priority 1973, dated 1977)
